Measured values: article PMC4503722, “Novel Phenotypic Outcomes Identified for a Public Collection of Approved Drugs from a Publicly Accessible Panel of Assays” (PLoS ONE, 2015)
Like-named read-outs stand apart in the source and are kept apart here.

What was measured:
DLD-1 = assay: cells; type: cell-based
SW480 = assay: cells; type: cell-based
HCT116 = assay: cells; type: cell-based
Colo320 = assay: cells; type: cell-based
RKO = assay: cells; type: cell-based
SNU-C1 = assay: cells; type: cell-based
[1] = tested on: endothelial tube formation in co-cultures of ECFCs and ADSCs treated with VEGF; assay: cells; type: cell-based, human
[2] = tested on: HCT116 cells treated with a GSK3β inhibitor; assay: cells; type: cell-based; settings: assay number 26, GSK3b inhibitor pretreated
HT-29 = assay: cells; type: cell-based; settings: assay number 28
[3] = tested on: ECFC/ADSC co-culture cell nuclei number
HeLa cells = assay: cells; type: cell-based; settings: for Hela CellCycMod PI 2N IC50/EC50: assay number 14; for Hela CellCycMod PI S Phase IC50/EC50: assay number 15; for Hela CellCycMod PI 4N IC50/EC50: assay number 16; for Hela CellCycMod PI MI IC50/EC50: assay number 17; for Hela CellCycMod PI Cell Number IC50/EC50: assay number 18

Compound	VEGF_ADSC\ECFC Angio CD31 TubeArea IC50/EC50 [1] [µM]	VEGF_ADSC\ECFC Angio Hoechst NucArea IC50/EC50 [3] [µM]	Hela CellCycMod PI 2N IC50/EC50 (HeLa cells) [µM]	Hela CellCycMod PI S Phase IC50/EC50 (HeLa cells) [µM]	Hela CellCycMod PI 4N IC50/EC50 (HeLa cells) [µM]	Hela CellCycMod PI MI IC50/EC50 (HeLa cells) [µM]	Hela CellCycMod PI Cell Number IC50/EC50 (HeLa cells) [µM]	further results
c1cnc2cc3c(cc2n1)C1CNCC3C1 [NCGC00247735-02]								Basal_Viability ATP DLD-1 IC50/EC50 (DLD-1; assay number 23, basal): > 6.6667 µM; Basal_Viability ATP SW480 IC50/EC50 (SW480; assay number 24, basal): > 6.6667 µM; Basal_Viability ATP HCT116 IC50/EC50 (HCT116; assay number 25, basal): > 20 µM; Basal_Viability ATP Colo 320 IC50/EC50 (Colo320; assay number 27, basal): > 20 µM
COc1ccc(-n2nc(CCC(=O)N(C)O)cc2-c2ccc(Cl)cc2)cc1 [NCGC00253573-01]								Basal_Viability ATP DLD-1 IC50/EC50 (DLD-1): 2.0757 µM; Basal_Viability ATP SW480 IC50/EC50 (SW480): 2.8124 µM; Basal_Viability ATP HCT116 IC50/EC50 (HCT116): 6.5453 µM; Basal_Viability ATP Colo 320 IC50/EC50 (Colo320): 0.6615 µM; Basal_Viability ATP RKO IC50/EC50 (RKO): 4.1076 µM; Basal_Viability ATP SNU-C1 IC50/EC50 (SNU-C1): 1.7479 µM
Clc1ccc(C(Cn2ccnc2)OCc2ccc(Sc3ccccc3)cc2)c(Cl)c1 (centres unmarked) [NCGC00253713-01]	> 10	> 10						Basal_Viability ATP DLD-1 IC50/EC50 (DLD-1; assay number 23): 7.7564 µM; Basal_Viability ATP SW480 IC50/EC50 (SW480; assay number 24): 7.4367 µM; Basal_Viability ATP HCT116 IC50/EC50 (HCT116; assay number 25, basal): 7.7123 µM; GSK3b inh pretreated_Viability ATP HCT116 IC50/EC50 [2]: 6.7686 µM; Basal_Viability ATP Colo 320 IC50/EC50 (Colo320; assay number 27): 7.0587 µM; Basal_Viability ATP HT-29 IC50/EC50 (HT-29): > 20 µM; Basal_Viability ATP RKO IC50/EC50 (RKO; assay number 29): 6.141 µM
CC(C)=CCC/C(C)=C/CC/C(C)=C/C(=O)OCC(=O)[C@@]1(O)CC[C@H]2[C@@H]3CCC4=CC(=O)C=C[C@]4(C)[C@H]3[C@@H](O)C[C@@]21C [NCGC00261967-01]	3.3384	> 10	> 10	> 10	> 10	> 10	0.05952	
CCCCCCCCCCCCCCCCNc1ccc(C(=O)O)cc1 [NCGC00261985-01]	0.3673	> 10	> 10		> 10	> 10	> 10	
Nc1nc(=O)n([C@@H]2O[C@H](CO)[C@@H](O)[C@@H]2F)cc1I [NCGC00262963-01]	3.4717	> 10	> 10	> 10	> 10	> 10	8.504	
CO[C@@H]1[C@@H](OC)[C@H](C)[C@@](O)(CC(=O)O)O[C@H]1[C@H](C)[C@H]1O[C@@]2(CC[C@@](C)([C@H]3CC[C@@](C)([C@@H]4O[C@@H]([C@H]5O[C@](C)(O)[C@H](C)C[C@@H]5C)C[C@@H]4OC4C[C@H](OC)[C@@H](OC)[C@H](C)O4)O3)O2)C[C@H](O)[C@H]1C.N (some centres unmarked) [NCGC00263563-01]	0.2517	2.568	> 10	> 10	> 10	> 10	2.751	
NCCNc1ccc(NCCN)c2c1C(=O)c1ccncc1C2=O [NCGC00274280-01]	0.0465	> 10	0.042		0.04829	> 10	0.04206	
CN1Cc2cc(C(=O)N3CCC(C4CCNCC4)CC3)ccc2N[C@@H](CC(=O)O)C1=O [NCGC00319023-01]	> 10	> 10						Basal_Viability ATP DLD-1 IC50/EC50 (DLD-1; assay number 23, concentration response): > 20 µM; Basal_Viability ATP SW480 IC50/EC50 (SW480; assay number 24, concentration response): > 20 µM; Basal_Viability ATP HCT116 IC50/EC50 (HCT116; assay number 25, basal, concentration response): > 20 µM; GSK3b inh pretreated_Viability ATP HCT116 IC50/EC50 ([2]; concentration response): > 20 µM; Basal_Viability ATP Colo 320 IC50/EC50 (Colo320; assay number 27, concentration response): > 20 µM; Basal_Viability ATP RKO IC50/EC50 (RKO; assay number 29, concentration response): > 20 µM; Basal_Viability ATP SNU-C1 IC50/EC50 (SNU-C1; assay number 30, concentration response): > 20 µM
CCCCCCCCCCCCCCCC[N+](C)(C)Cc1ccccc1.[Cl-] [NCGC00344524-01]	2.5333	> 10	> 10	> 10	> 10	> 10	> 10	
